Patent US20200040348A1, “CONTROL OF VIRAL AND BACTERIAL INFECTION BY ANTIMICROBIAL PEPTIDES RETROCYCLIN AND/OR PROTEGRIN EXPRESSED IN CHLOROPLASTS” (THE TRUSTEES OF THE UNIVERSITY OF PENNSYLVANIA, priority 2010, published 2020)
Entries after “also recorded” stand apart in the source; their conditions may differ. Where no end group is shown, it is not given here.

Columns and labels:
[1] = tested on: gram-positive or gram-negative bacteria; conditions: cited from earlier work
Erwinia carotovora [2] = experiment: In planta assay for resistance to Erwinia soft rot (syringe or sandpaper inoculation of tobacco leaves); assay type: in vivo; conditions: mature transplastomic tobacco leaves; for necrosis at the site of inoculation: sand paper method, up to 10^8 E. carotovora cells; for necrosis surrounding the point of inoculation: syringe method, 10^8, 10^6, 10^4 and 10^2 E. carotovora cells, peptide expressed in chloroplasts
[3] = tested on: tobacco mosaic virus (TMV); assay type: in vivo; conditions: transplastomic tobacco plants, within 20 days after inoculation
Erwinia carotovora [4] = experiment: Erwinia carotovora inoculation and bacterial count in tobacco leaves; assay type: in vivo; conditions: plants inoculated with 1.0×10^5 cfu/ml E. carotovora
Procedure: The leaves of untransformed and transplastomic tobacco plants were inoculated with 20 μl of bacterial suspension (1.0×10^5 cfu/ml) through a syringe. Each leaf disc (0.8 cm diameter) was punched off from the inoculated area of an individual plant after 0, 1 or 3 days of incubation. The bacterial population inside the leaf was calculated as follows. Leaf tissue was ground in 100 μl sterilized water in a microcentrifuge tube. The suspension was serially diluted with sterilized water and was then plated on nutrient broth agar plates (Difco). Colonies were counted after one day of incubation at 25° C.

[5] = tested on: T-tropic and M-tropic strains of HIV-1; conditions: human CD4+ lymphocytes, in vitro; cited from earlier work
[6] = tested on: vegetative B. anthracis cells; conditions: cited from earlier work
HIV-1 = conditions: organ-like construct of human cervicovaginal tissue; cited from earlier work

Substance | minimum inhibitory concentrations [1] | necrosis at the site of inoculation (Erwinia carotovora [2]) | necrosis surrounding the point of inoculation (Erwinia carotovora [2]) | symptoms of TMV infection [3] | symptoms of necrosis (Erwinia carotovora [4]) | concentration that inhibits proviral DNA formation and protects from infection [5] | minimum effective concentration [6] | amount that prevents HIV-1 infection (HIV-1)
Protegrin-1 (RGGRLCYCRRRFCVCVGR; not fully specified (bridges); ends and bridges not checked; also: two disulfide bonds, pairing not given here) [PG1] | 0.12 to 2 µg/mL | mild discoloration | no areas of necrosis | typical mosaic, necrosis and wrinkle symptoms; also recorded: not effective | no apparent symptoms of necrosis |  |  | 
Retrocyclin |  |  |  |  |  | 10 to 20 µg/mL |  | 
Retrocyclin-1 |  |  |  |  |  |  | < 1 µg/mL | 
Retrocyclin-101 [RC101] |  | no necrosis | no areas of necrosis | didn't show obvious symptoms of TMV infection; also recorded: resistant to TMV infection | no apparent symptoms of necrosis |  |  | 2 µg
